In patent US6737383B1, “Herbicidal oxadiazolidines” (priority 1999, dated 2004):

Legend:
crabgrass = assay: Test A crabgrass; format: in vivo, Digitaria spp.; settings: 0 to 10 scale where 0 is no effect and 10 is complete control
Procedure, shortened: (§1)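 Visual injury score, 0 (no effect) to 10 (complete control), vs untreated controls at ~11 d in greenhouse. Pre: soil drench on sandy loam. Post: spray to runoff, 1–2 leaf stage.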

morningglory = assay: Test A morningglory; format: in vivo, Ipomoea spp.; settings: 0 to 10 scale where 0 is no effect and 10 is complete control
Procedure, shortened: as §1

rape = assay: Test E rape; format: in vivo, Brassica napus; settings: Postemergence
Experimental: (§2) […] A mixture of sandy loam soil and greenhouse potting mix in a 60:40 ratio was used for the postemergence test.
(§3) Plantings of these crops and weed species were adjusted to produce plants of appropriate size for the postemergence test. All plant species were grown using normal greenhouse practices. Crop and weed species include annual bluegrass (Poa annua), blackgrass (Alopecurus myosuroides), black nightshade (Solanum nigra), chickweed (Stellaria media), common poppy (Papaver rhoeas), deadnettle (Lamium amplexicaule), downy brome (Bromus tectorum), field violet (Viola arvensis), galium (Galium aparine), green foxtail (Setaria viridis), Italian ryegrass (Lolium multiflorum), jointed goatgrass (Aegilops cylindrica), kochia (Kochia scoparia), lambsquarters (Chenopodium album), littleseed canarygrass (Phalaris minor), rape (Brassica napus), redroot pigweed (Amaranthus retroflexus), Russian thistle (Salsola kali), scentless chamomile (Matricaria inodora), spring barley (Hordeum vulgare), sugar beet (Beta vulgaris), sunflower (Helianthus annuus), ivyleaf speedwell (Veronica hederaefolia), spring wheat (Triticum aestivum), winter wheat (Triticum aestivum), wild buckwheat (Polygonum convolvulus), wild mustard (Sinapis arvensis), wild oat (Avena fatua), windgrass (Apera spica-venti) and winter barley (Hordeum vulgare).
(§4) Treated plants and untreated controls were maintained in a greenhouse for approximately 21 to 28 days, after which all treated plants were compared to untreated controls and visually evaluated. […] A dash response (-) means no test result.

wild buckwheat = assay: Test E wild buckwheat; format: in vivo, Polygonum convolvulus; settings: Preemergence
Russian thistle = assay: Test E Russian thistle; format: in vivo, Salsola kali; settings: Postemergence
Experimental: as §2, §3, §4

littleseed canarygrass [1] = assay: Test E littleseed canarygrass; format: in vivo, Phalaris minor; settings: Preemergence
field bindweed = assay: Test C postemergence field bindweed; format: in vivo, Convolvulus arvensis; settings: 0 to 100 scale, 0 no effect, 100 complete control
Experimental: (§5) Compounds evaluated in this test were formulated in a non-phytotoxic solvent mixture which included a surfactant and applied to plants that were grown for various periods of time before treatment (postemergence application). A mixture of sandy loam soil and greenhouse potting mix in a 60:40 ratio was used for the postemergence test.
Plantings of these crops and weed species were adjusted to produce plants of appropriate size for the postemergence test. All plant species were grown using normal greenhouse practices. Crop and weed species include arrowleaf sida (Sida rhombifolia), barnyardgrass (Echinochloa crus-galli), cocklebur (Xanthium strumarium), common ragweed (Ambrosia elatior), corn (Zea mays), cotton (Gossypium hirsutum), eastern black nightshade (Solanum ptycanthum), fall panicum (Panicum dichotomiflorum), field bindweed (Convolvulus arvensis), giant foxtail (Setaria faberii), hairy beggarticks (Bidens pilosa), ivyleaf morningglory (Ipomoea hederacea), johnsongrass (Sorghum halepense), ladysthumb smartweed (Polygonum persicaria), lambsquarters (Chenopodium album), large crabgrass (Digitaria sanguinalis), purple nutsedge (Cyperus rotundus), redroot pigweed (Amaranthus retroflexus), soybean (Glycine max), surinam grass (Brachiaria decumbens), velvetleaf (Abutilon theophrasti) and wild poinsettia (Euphorbia heterophylla).
Treated plants and untreated controls were maintained in a greenhouse for approximately 14, to 21 days, after which all treated plants were compared to untreated controls and visually evaluated. Plant response ratings, summarized in Table C, were based upon a 0 to 100 scale where 0 was no effect and 100 was complete control. A dash response (−) means no test result.

littleseed canarygrass [2] = assay: Test E littleseed canarygrass; format: in vivo, Phalaris minor; settings: Postemergence
Experimental: as §5, with “in the 1- to 4-leaf stage” for “grown for various periods of time before treatment”
as §3, §4

jointed goatgrass [3] = assay: Test E jointed goatgrass; format: in vivo, Aegilops cylindrica; settings: Postemergence
Procedure, shortened: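 For postemergence, sowings are timed so plants reach the 1- to 4-leaf stage at spraying. Test compound is applied in a surfactant-containing solvent mixture that is non-phytotoxic. Response is judged by eye against untreated controls after approximately 21 to 28 days.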

jointed goatgrass [4] = assay: Test E jointed goatgrass; format: in vivo, Aegilops cylindrica; settings: Preemergence
pitted morningglory = assay: Test D pitted morningglory; format: in vivo, Ipomoea lacunosa; settings: Postemergence, 0 to 100 scale
sandbur = assay: Test D sandbur; format: in vivo, Cenchrus echinatus; settings: Postemergence, 0 to 100 scale; for Sandbur plant response rating: 0 no injury, 100 complete control
guineagrass = assay: Test D guineagrass; format: in vivo, Panicum maximum; settings: Postemergence, 0 to 100 scale
[5] = Rate 250 g/ha, 0 to 100 scale (0 no effect, 100 complete control)
[6] = Rate 500 g/ha, 0 to 100 scale, 0 no effect, 100 complete control
[7] = Rate 125 g/ha, 0 to 100 scale (0 no effect, 100 complete control)
[8] = Rate 500 g/ha, 0 to 100 scale where 0 is no effect and 100 is complete control
[9] = Rate 250 g/ha, 0 to 100 scale where 0 is no effect and 100 is complete control
[10] = Rate 64 g/ha, 0 no injury, 100 complete control
[11] = Rate 125 g/ha, 0 no injury, 100 complete control

CC(C)N(C(=O)n1oc(=O)n(C)c1=O)c1ccc(Cl)cc1 [Compound 137]
Plant response rating, Crabgrass (crabgrass; Postemergence, Rate 1000 g/ha): 8
Plant response rating, Crabgrass (crabgrass; Pre-emergence, Rate 2000 g/ha): 10
Plant response rating, Morningglory (morningglory; Postemergence, Rate 1000 g/ha): 10
Plant response rating, Morningglory (morningglory; Pre-emergence, Rate 2000 g/ha): 3

CC(C)N(C(=O)n1oc(=O)n(C(C)C)c1=O)c1ccc(F)cc1F [Compound 109]
Plant response rating, Rape (rape; Rate 125 g/ha, 0 to 100 scale): 50
Plant response rating, Rape (rape; [5]): 50
Plant response rating, Rape (rape; [6]): 60
Plant response rating, Wild buckwheat (wild buckwheat; [7]): 20
Plant response rating, Wild buckwheat (wild buckwheat; Rate 250 g/ha, 0 to 100 scale): 85
Plant response rating, Wild buckwheat (wild buckwheat; [8]): 90
Plant response rating, Russian thistle (Russian thistle; Rate 125 g/ha, 0 to 100 scale): 0
Plant response rating, Russian thistle (Russian thistle; [5]): 0
Plant response rating, Russian thistle (Russian thistle; [6]): 0
Plant response rating, LS canarygrass (littleseed canarygrass [1]; [7]): 50
Plant response rating, LS canarygrass (littleseed canarygrass [1]; Rate 250 g/ha, 0 to 100 scale): 60
Plant response rating, LS canarygrass (littleseed canarygrass [1]; [8]): 50
Plant response rating Field bindweed (field bindweed; Rate 140 g/ha): 0
Plant response rating Field bindweed (field bindweed; Rate 280 g/ha): 0
Plant response rating Field bindweed (field bindweed; Rate 560 g/ha): 10
Plant response rating Field bindweed (field bindweed; Rate 1120 g/ha): 10
Plant response rating, LS canarygrass (littleseed canarygrass [2]; Rate 125 g/ha, 0 to 100 scale): 25
Plant response rating, LS canarygrass (littleseed canarygrass [2]; [5]): 50
Plant response rating, LS canarygrass (littleseed canarygrass [2]; [6]): 65
Plant response rating, Jointed goatgra (jointed goatgrass [3]; Rate 125 g/ha, 0 to 100 scale): 10
Plant response rating, Jointed goatgra (jointed goatgrass [3]; [5]): 5
Plant response rating, Jointed goatgra (jointed goatgrass [3]; [6]): 30
Plant response rating, Jointed goatgra (jointed goatgrass [4]; [7]): 20
Plant response rating, Jointed goatgra (jointed goatgrass [4]; Rate 250 g/ha, 0 to 100 scale): 65
Plant response rating, Jointed goatgra (jointed goatgrass [4]; [8]): 70

Cc1ccc(N(C(=O)n2oc(=O)n(C(C)C)c2=O)C(C)C)cc1 [Compound 132]
Plant response rating Field bindweed (field bindweed; Rate 140 g/ha): 0
Plant response rating Field bindweed (field bindweed; Rate 280 g/ha): 0
Plant response rating Field bindweed (field bindweed; Rate 560 g/ha): 40
Plant response rating Field bindweed (field bindweed; Rate 1120 g/ha): 70

Cc1ccccc1-n1c(=O)on(C(=O)N(c2cc(OC(C)C)c(Cl)cc2Cl)C(C)C)c1=O [Compound 42]
Plant response rating, Crabgrass (crabgrass; Postemergence, Rate 1000 g/ha): 0
Plant response rating, Crabgrass (crabgrass; Pre-emergence, Rate 2000 g/ha): 0
Plant response rating, Morningglory (morningglory; Postemergence, Rate 1000 g/ha): 0
Plant response rating, Morningglory (morningglory; Pre-emergence, Rate 2000 g/ha): 0

CC(C)N(C(=O)n1oc(=O)n(Cc2ccccc2)c1=O)c1ccccc1 [Compound 94]
Plant response rating Field bindweed (field bindweed; Rate 140 g/ha): 0
Plant response rating Field bindweed (field bindweed; Rate 280 g/ha): 0
Plant response rating Field bindweed (field bindweed; Rate 560 g/ha): 0
Plant response rating Field bindweed (field bindweed; Rate 1120 g/ha): 0

CCN(C(=O)n1oc(=O)n(N(C)c2ccccc2)c1=O)C1CCCCC1 [Compound 183]
Plant response rating, Crabgrass (crabgrass; Postemergence, Rate 1000 g/ha): 1
Plant response rating, Crabgrass (crabgrass; Pre-emergence, Rate 2000 g/ha): 5
Plant response rating, Morningglory (morningglory; Postemergence, Rate 1000 g/ha): 0
Plant response rating, Morningglory (morningglory; Pre-emergence, Rate 2000 g/ha): 0

C=CCn1c(=O)on(C(=O)N(c2ccc(F)cc2)C(C)C)c1=O [Compound 146]
Plant response rating, Rape (rape; Rate 62 g/ha, 0 to 100 scale): 60
Plant response rating, Rape (rape; Rate 125 g/ha, 0 to 100 scale): 40
Plant response rating, Rape (rape; [6]): 60
Rape plant response rating (rape; [9]): 50
Plant response rating, P. morninglory (pitted morningglory; [10]): 30
Plant response rating, P. morninglory (pitted morningglory; [11]): 40
Plant response rating, P. morninglory (pitted morningglory; Rate 250 g/ha): 50
Plant response rating, P. morninglory (pitted morningglory; Rate 500 g/ha): 65
Plant response rating, Wild buckwheat (wild buckwheat; [7]): 70
Wild buckwheat plant response rating (0 to 100 scale) (wild buckwheat; Rate 250 g/ha): 85
Plant response rating, Wild buckwheat (wild buckwheat; [8]): 100
Sandbur plant response rating (sandbur; Rate 64 g/ha): 0
Plant response rating, Sandbur (sandbur; Rate 250 g/ha): 85
Plant response rating, Sandbur (sandbur; Rate 500 g/ha): 80
Plant response rating, Russian thistle (Russian thistle; Rate 62 g/ha, 0 to 100 scale): 20
Plant response rating, Russian thistle (Russian thistle; Rate 125 g/ha, 0 to 100 scale): 0
Plant response rating, Russian thistle (Russian thistle; [6]): 0
Russian thistle plant response rating (Russian thistle; [9]): 0
Plant response rating, LS canarygrass (littleseed canarygrass [1]; [7]): 40
LS canarygrass plant response rating (0 to 100 scale) (littleseed canarygrass [1]; Rate 250 g/ha): 75
Plant response rating, LS canarygrass (littleseed canarygrass [1]; [8]): 85
Plant response rating Field bindweed (field bindweed; Rate 140 g/ha): 0
Plant response rating Field bindweed (field bindweed; Rate 280 g/ha): 0
Plant response rating Field bindweed (field bindweed; Rate 560 g/ha): 0
Plant response rating Field bindweed (field bindweed; Rate 1120 g/ha): 0
Plant response rating, LS canarygrass (littleseed canarygrass [2]; Rate 62 g/ha, 0 to 100 scale): 30
Plant response rating, LS canarygrass (littleseed canarygrass [2]; Rate 125 g/ha, 0 to 100 scale): 30
Plant response rating, LS canarygrass (littleseed canarygrass [2]; [6]): 65
LS canarygrass plant response rating (littleseed canarygrass [2]; [9]): 30
Plant response rating, Jointed goatgra (jointed goatgrass [3]; Rate 62 g/ha, 0 to 100 scale): 55
Plant response rating, Jointed goatgra (jointed goatgrass [3]; Rate 125 g/ha, 0 to 100 scale): 15
Plant response rating, Jointed goatgra (jointed goatgrass [3]; [6]): 40
Jointed goatgra plant response rating (jointed goatgrass [3]; [9]): 10
Plant response rating, Guineagrass (guineagrass; [10]): 10
Plant response rating, Guineagrass (guineagrass; [11]): 10
Plant response rating, Guineagrass (guineagrass; Rate 250 g/ha): 35
Plant response rating, Guineagrass (guineagrass; Rate 500 g/ha): 60
Plant response rating, Jointed goatgra (jointed goatgrass [4]; [7]): 45
Jointed goatgra plant response rating (0 to 100 scale) (jointed goatgrass [4]; Rate 250 g/ha): 50
Plant response rating, Jointed goatgra (jointed goatgrass [4]; [8]): 50

CC(C)N(C(=O)n1oc(=O)n(C2CC2)c1=O)c1ccc(F)cc1F [Compound 299]
Plant response rating, P. morninglory (pitted morningglory; [10]): 0
Plant response rating, P. morninglory (pitted morningglory; [11]): 0
Plant response rating, P. morninglory (pitted morningglory; Rate 250 g/ha): 0
Plant response rating, P. morninglory (pitted morningglory; Rate 500 g/ha): 0
Sandbur plant response rating (sandbur; Rate 64 g/ha): 90
Sandbur plant response rating (sandbur; Rate 125 g/ha): 100
Plant response rating, Sandbur (sandbur; Rate 250 g/ha): 100
Plant response rating, Sandbur (sandbur; Rate 500 g/ha): 100
Guineagrass plant response rating (guineagrass; [10]): 20
Plant response rating, Guineagrass (guineagrass; [10]): 0
Plant response rating, Guineagrass (guineagrass; [11]): 80
Plant response rating, Guineagrass (guineagrass; Rate 250 g/ha): 100
Plant response rating, Guineagrass (guineagrass; Rate 500 g/ha): 100

CC(C)N(C(=O)n1oc(=O)n(C2CCCC(C(F)(F)F)C2)c1=O)c1ccc(F)cc1 (stereo not shown) [Compound 184]
Plant response rating, Crabgrass (crabgrass; Postemergence, Rate 1000 g/ha): 1
Plant response rating, Crabgrass (crabgrass; Pre-emergence, Rate 2000 g/ha): 9
Plant response rating, Morningglory (morningglory; Postemergence, Rate 1000 g/ha): 10
Plant response rating, Morningglory (morningglory; Pre-emergence, Rate 2000 g/ha): 0

CC(C)N(C(=O)n1oc(=O)n(N(C)c2ccccc2)c1=O)c1ccc(F)cc1 [Compound 177]
Plant response rating, Crabgrass (crabgrass; Postemergence, Rate 1000 g/ha): 3
Plant response rating, Crabgrass (crabgrass; Pre-emergence, Rate 2000 g/ha): 9
Plant response rating, Morningglory (morningglory; Postemergence, Rate 1000 g/ha): 0
Plant response rating, Morningglory (morningglory; Pre-emergence, Rate 2000 g/ha): 0
